Results taken from patent US20240317721A1, “PYRAZOLYL DERIVATIVES AS INHIBITORS OF THE KRAS MUTANT PROTEIN” (NOVARTIS AG, priority 2021, published 2024).

target: KRasG12C (Homo sapiens (Human), UniProt P01116, G12C); test: MS-based assay assessing % modification of KRasG12C over compound concentrations and time points; assay type: biochemical; details: non-labeled ligand, internally determined, read-out: (kinact/KI)probe, second order rate constant for modification of KRasG12C

kinact/KI | SMILES
~5000 M⁻¹ s⁻¹ | C=CC(=O)Nc1ccc(-n2c(C)c(-c3c(C)ccc4[nH]ncc34)c3cccnc32)c(F)c1 [Compound A, N-(3-fluoro-4-(2-methyl-3-(5-methyl-1H-indazol-4-yl)-1H-pyrrolo[2,3-b]pyridin-1-yl)phenyl)acrylamide]

target: KRasG12C (M1-K169, biotinylated on the N-terminus) (Homo sapiens (Human), UniProt P01116, G12C); test: Covalent competition assay: scintillation proximity assay (SPA) quantifying covalent modification of KRASG12C; assay type: binding; details: competition with radiolabeled covalent probe (Compound B/Compound A), 2 hours incubation, 10 nM KRasG12C
Method in brief: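 Scintillation proximity readout after streptavidin bead capture (30 min) of biotinylated KRasG12C(M1-K169):GDP, 10 nM final, which was covalently labelled over 2 h by 25 nM radio-probe plus 475 nM cold probe unless blocked by compound.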

IC50 | SMILES
8 nM | C=CC(=O)N1CC2(CC(n3nc(N4CCN(C(C)=O)C[C@]4(C)CC)c(-c4c(Cl)c(C)cc5[nH]ncc45)c3C)C2)C1 (single isomer, unassigned) [Example 121b]
> 5000 nM | C=CC(=O)N1CC2(CC(n3nc(N4CCN(C(C)=O)C[C@]4(C)CC)c(-c4c(Cl)c(C)cc5[nH]ncc45)c3C)C2)C1 (single isomer, unassigned) [Example 121a]
4600 nM | C=CC(=O)N1CC2(CC(n3nc(N4CC[C@@H](CN5CC6(CCCN6C(C)=O)C5)CC4(C)C)c(-c4c(Cl)c(Cl)cc5[nH]ncc45)c3C)C2)C1 (single isomer, unassigned) [Example 285a]
766 nM | C=CC(=O)N1CC2(CC(n3nc(N4CCN(C5CCOCC5)C[C@]4(C)COC)c(-c4c(Cl)c(C)cc5[nH]ncc45)c3C)C2)C1 (single isomer, unassigned) [Example 149a]
7 nM | C=CC(=O)N1CC2(CC(n3nc(N4CCN(C5COC5)CC45CCC5)c(-c4c(Cl)c(Cl)cc5[nH]ncc45)c3C)C2)C1 (single isomer, unassigned) [Example 72b]
1800 nM | C=CC(=O)N1CC2(CC(n3nc(N4CC[C@@H](CN5CCN(C6COC6)CC5)CC4(C)C)c(-c4c(Cl)c(F)cc5[nH]ncc45)c3C)C2)C1 (single isomer, unassigned) [Example 245a]
> 5000 nM | C=CC(=O)N1CC2(CC(n3nc(N4CCN(C(=O)[C@@H]5CCCO5)CC45CCC5)c(-c4c(Cl)c(C)cc5[nH]ncc45)c3C)C2)C1 (single isomer, unassigned) [Example 124a]
1200 nM | C=CC(=O)N1CC2(CC(n3nc(N4CCN(C(=O)N(C)C)CC4(C)C)c(-c4c(Cl)c(C)cc5[nH]ncc45)c3C)C2)C1 (single isomer, unassigned) [Example 129b, 4-(1-(2-acryloyl-2-azaspiro[3.3]heptan-6-yl)-4-(5-chloro-6-methyl-1H-indazol-4-yl)-5-methyl-1H-pyrazol-3-yl)-N,N,3,3-tetramethylpiperazine-1-carboxamide]
12 nM | C=CC(=O)N1CC2(CC(n3nc(N4CC[C@@H](CN5CCOCC5)CC4(C)C)c(-c4c(Cl)c(Cl)cc5[nH]ncc45)c3C)C2)C1 (single isomer, unassigned) [Example 213b]
24700 nM | C=CC(=O)N1CC2(CC(n3nc(N4CCN(C)CC45CCC5)c(-c4c(Cl)c(C)cc5[nH]ncc45)c3C)C2)C1 (single isomer, unassigned) [Example 55a, 1-(6-(4-(5-chloro-6-methyl-1H-indazol-4-yl)-5-methyl-3-(8-methyl-5,8-diazaspiro[3.5]nonan-5-yl)-1H-pyrazol-1-yl)-2-azaspiro[3.3]heptan-2-yl)prop-2-en-1-one]
> 5000 nM | C=CC(=O)N1CC2(CC(n3nc(N4CCC(C(=O)N(C)C)CC4(C)C)c(-c4c(Cl)c(C)cc5[nH]ncc45)c3C)C2)C1 (centres unmarked) [Example 99b, 1-(1-(2-acryloyl-2-azaspiro[3.3]heptan-6-yl)-4-(5-chloro-6-methyl-1H-indazol-4-yl)-5-methyl-1H-pyrazol-3-yl)-N,N,2,2-tetramethylpiperidine-4-carboxamide]
9 nM | CC[C@@]1(C)CN(C[C@@H]2COCCO2)CCN1c1nn(C2CC3(C2)CN(C(=O)/C=C/Cl)C3)c(C)c1-c1c(Cl)c(C)cc2[nH]ncc12 (single isomer, unassigned) [Example 175b]
27 nM | C=CC(=O)N1CC2(CC(n3nc(N4CCN(CCOC(F)F)CC45CCC5)c(-c4c(Cl)c(C)cc5[nH]ncc45)c3C)C2)C1 (single isomer, unassigned) [Example 183b, 1-(6-(4-(5-chloro-6-methyl-1H-indazol-4-yl)-3-(8-(2-(difluoromethoxy)ethyl)-5,8-diazaspiro[3.5]nonan-5-yl)-5-methyl-1H-pyrazol-1-yl)-2-azaspiro[3.3]heptan-2-yl)prop-2-en-1-one]
4600 nM | C=CC(=O)N1CC2(CC(n3nc(N4CCC(n5ccnc5)CC4(C)C)c(-c4c(Cl)c(C)cc5[nH]ncc45)c3C)C2)C1 (single isomer, unassigned) [Example 44a, 1-(6-(3-(4-(1H-imidazol-1-yl)-2,2-dimethylpiperidin-1-yl)-4-(5-chloro-6-methyl-1H-indazol-4-yl)-5-methyl-1H-pyrazol-1-yl)-2-azaspiro[3.3]heptan-2-yl)prop-2-en-1-one]
5 nM | C=CC(=O)N1CC2(CC(n3nc(N4CCN(C5COC5)C[C@]4(C)CC)c(-c4c(Cl)c(Cl)cc5[nH]ncc45)c3C)C2)C1 (single isomer, unassigned) [Example 155b]
81 nM | C=CC(=O)N1CC2(CC(n3nc(N4CCC(CN5CCOCC5)C4(C)C)c(-c4c(Cl)c(Cl)cc5[nH]ncc45)c3C)C2)C1 (single isomer, unassigned) [Example 218a, 1-(6-(4-(5,6-dichloro-1H-indazol-4-yl)-3-(2,2-dimethyl-3-(morpholinomethyl)pyrrolidin-1-yl)-5-methyl-1H-pyrazol-1-yl)-2-azaspiro[3.3]heptan-2-yl)prop-2-en-1-one]
6 nM | C=CC(=O)N1CC2(CC(n3nc(N4CC[C@@H](CN5CCN6CCOC[C@@H]6C5)CC4(C)C)c(-c4c(Cl)c(Cl)cc5[nH]ncc45)c3C)C2)C1 (single isomer, unassigned) [Example 279b]

target: KRasG12C mutant (Homo sapiens (Human), UniProt P01116, G12C); test: covalent competition assay; assay type: binding; details: comparison of the two atropisomers; a(R) vs a(S) configuration

relative activity of the atropisomers of a pair in the covalent competition assay | SMILES
most active atropisomer | C=CC(=O)N1CC2(CC(n3nc(N4CCN(C(C)=O)C[C@]4(C)CC)c(-c4c(Cl)c(C)cc5[nH]ncc45)c3C)C2)C1 (single isomer, unassigned) [Example 121b]
less active atropisomer | C=CC(=O)N1CC2(CC(n3nc(N4CCN(C(C)=O)C[C@]4(C)CC)c(-c4c(Cl)c(C)cc5[nH]ncc45)c3C)C2)C1 (single isomer, unassigned) [Example 121a]
